# Laboratory results reported in patent US20230265151A1, “GIP/GLP1 CO-AGONIST COMPOUNDS” (priority 2020, published 2023).
# Like-named read-outs stand apart in the source and are kept apart here. *1 amine or outer side, *2 acyl side, *3 side chain or, on linkers, in order; H or OH if unused. Where a SMILES comes first, the peptide text is derived from it. Side-chain parts run from the residue outwards. [ ]: non-standard residue; d: D form. The star is where a group is joined. Decanoyl(10-(4-HOOC-PhO)) = O=C(O)c1ccc(OCCCCCCCCCC(=O)*)cc1; αMePhe(2-F) = C[C@](N)(Cc1ccccc1F)C(=O)O; γGlu = O=C(O)[C@H](CCC(=O)[*:2])N[*:1]; C14 diacid = O=C(O)CCCCCCCCCCCCC(=O)*; αMeY = C[C@](N)(Cc1ccc(O)cc1)C(=O)O; αMeF = C[C@](N)(Cc1ccccc1)C(=O)O; αMeL = CC(C)C[C@](C)(N)C(=O)O; Orn = NCCC[C@H](N)C(=O)O; AEEA = NCCOCCOCC(=O)O; Aib = CC(C)(N)C(=O)O
# Key:
# Assay type in all cases: cell-based
# hGIPR = biological target: T1, hGIPR (Homo sapiens, UniProt P48546); test: Functional cAMP formation (HTRF) in HEK-293 clonal cells expressing hGIPR, 0.1% bovine casein, without or with 1.0% human serum albumin
# T1 construct: expressed in transfected cells
# T1 sequence (P48546 22-466): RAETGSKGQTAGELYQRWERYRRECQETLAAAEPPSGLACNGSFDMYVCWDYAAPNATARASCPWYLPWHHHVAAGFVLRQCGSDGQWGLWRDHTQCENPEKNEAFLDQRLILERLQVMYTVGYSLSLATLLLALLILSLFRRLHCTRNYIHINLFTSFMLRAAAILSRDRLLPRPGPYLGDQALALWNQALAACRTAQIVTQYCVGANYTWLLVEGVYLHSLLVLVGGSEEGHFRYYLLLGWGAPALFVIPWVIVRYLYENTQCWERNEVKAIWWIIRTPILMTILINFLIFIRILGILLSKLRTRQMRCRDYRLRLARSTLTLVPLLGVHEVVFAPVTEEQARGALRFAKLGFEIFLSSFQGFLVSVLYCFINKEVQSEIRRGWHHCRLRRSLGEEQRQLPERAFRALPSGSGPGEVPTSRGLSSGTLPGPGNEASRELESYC
# Summary of the method: (§1)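 Cells were stimulated with peptide for 30 min at 37° C, then lysed in buffer carrying cAMP-d2 and anti-cAMP Eu3+-cryptate for a competitive HTRF read after at least 60 min at room temperature. The 665/620 nm ratio was converted to nM cAMP against a standard curve.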
# hGCGR = biological target: T2, hGCGR (Homo sapiens, UniProt P47871); test: Functional cAMP formation (HTRF) in HEK-293 clonal cells expressing hGCGR, 0.1% bovine casein, without or with 1.0% human serum albumin; settings: cAMP
# T2 construct: expressed in transfected cells
# Summary of the method: as §1
# hGLP-1R = hGLP-1R (Homo sapiens, UniProt P43220); test: Functional cAMP formation (HTRF) in HEK-293 clonal cells expressing hGLP-1R, 0.1% bovine casein, without or with 1.0% human serum albumin; design: expressed in transfected cells
# Summary of the method: as §1
# Sequence of hGLP-1R (P43220 24-463): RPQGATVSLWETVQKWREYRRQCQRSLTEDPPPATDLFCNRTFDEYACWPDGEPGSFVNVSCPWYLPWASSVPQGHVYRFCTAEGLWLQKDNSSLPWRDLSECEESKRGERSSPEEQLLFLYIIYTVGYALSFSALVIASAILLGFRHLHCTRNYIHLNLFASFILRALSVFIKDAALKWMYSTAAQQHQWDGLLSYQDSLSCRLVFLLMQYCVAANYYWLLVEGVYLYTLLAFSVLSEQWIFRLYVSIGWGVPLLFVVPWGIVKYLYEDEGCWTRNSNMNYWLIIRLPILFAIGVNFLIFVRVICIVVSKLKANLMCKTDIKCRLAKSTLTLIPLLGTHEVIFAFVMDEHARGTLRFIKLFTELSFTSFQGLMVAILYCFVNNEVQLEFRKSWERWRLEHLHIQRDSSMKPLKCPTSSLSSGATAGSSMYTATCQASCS
# T2 sequence (P47871 26-477): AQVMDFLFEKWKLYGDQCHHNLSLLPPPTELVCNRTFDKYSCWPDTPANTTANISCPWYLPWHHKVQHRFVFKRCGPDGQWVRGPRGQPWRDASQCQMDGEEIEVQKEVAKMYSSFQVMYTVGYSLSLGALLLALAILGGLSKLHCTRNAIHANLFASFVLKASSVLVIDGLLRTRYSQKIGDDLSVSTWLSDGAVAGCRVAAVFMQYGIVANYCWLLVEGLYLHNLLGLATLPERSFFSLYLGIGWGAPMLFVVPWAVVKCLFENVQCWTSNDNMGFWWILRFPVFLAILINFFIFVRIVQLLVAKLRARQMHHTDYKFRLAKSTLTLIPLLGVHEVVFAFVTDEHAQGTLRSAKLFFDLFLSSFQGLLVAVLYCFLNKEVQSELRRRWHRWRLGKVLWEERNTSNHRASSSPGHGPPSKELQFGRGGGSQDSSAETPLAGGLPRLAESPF
Compound,"Emax (hGIPR; HEK293, read-out: hGIPR Emax, % ± SEM, cAMP, 37° C., 0.1% bovine casein and 1.0% human serum albumin, percent of maximal response to GIP(1-42)NH2) [%]","EC50 (hGIPR; hGIPR EC50, nM (SEM, n), cAMP, 37° C., 0.1% bovine casein (no human serum albumin), geometric mean) [nM]","EC50 (hGCGR; hGCGR EC50, nM (SEM, n), 37° C., 0.1% bovine casein (no human serum albumin), geometric mean) [nM]","EC50 (hGCGR; hGCGR EC50, nM (SEM, n), 37° C., 0.1% bovine casein and 1.0% human serum albumin, geometric mean (SEM, n)) [nM]","Emax (hGLP-1R; HEK293, read-out: hGLP-1R Emax, % ± SEM, cAMP, 37° C., 0.1% bovine casein and 1.0% human serum albumin, percent of maximal response to GLP-1(7-36)NH2) [%]","EC50 (hGLP-1R; hGLP-1R EC50, nM (SEM, n), cAMP, 37° C., 0.1% bovine casein (no human serum albumin), geometric mean) [nM]","Emax (hGIPR; HEK293, percent of maximal response to GIP(1-42)NH2, 37° C., 0.1% bovine casein, arithmetic mean, read-out: hGIPR Emax, % ± SEM) [%]","EC50 (hGCGR; incubated at 37° C., 0.1% bovine casein (no human serum albumin), geometric mean, read-out: hGCGR EC50, nM (SEM, n)) [nM]","Emax (hGLP-1R; HEK293, percent of maximal response to GLP-1(7-36)NH2, 37° C., 0.1% bovine casein, arithmetic mean, read-out: hGLP-1R Emax, % ± SEM) [%]"
CC[C@H](C)[C@H](NC(=O)[C@H](CC(C)C)NC(=O)[C@](C)(Cc1ccc(O)cc1)NC(=O)[C@@H](CCC(=O)O)NC(=O)[C@@H](NC(=O)[C@H](Cc1ccccc1)NC(=O)[C@H](CCCCNC(=O)COCCOCCNC(=O)COCCOCCNC(=O)CC[C@H](NC(=O)CCCCCCCCCOc1ccc(C(=O)O)cc1)C(=O)O)NC(=O)C(C)(C)NC(=O)[C@H](CCC(N)=O)NC(=O)[C@H](C)NC(=O)[C@H](CCCCNC(=O)COCCOCCNC(=O)COCCOCCNC(=O)CC[C@H](NC(=O)CCCCCCCCCOc1ccc(C(=O)O)cc1)C(=O)O)NC(=O)[C@H](CCCN)NC(=O)[C@H](CC(=O)O)NC(=O)[C@H](CC(C)C)NC(=O)[C@](C)(CC(C)C)NC(=O)[C@@H](NC(=O)C(C)(C)NC(=O)[C@H](Cc1ccc(O)cc1)NC(=O)[C@H](CC(=O)O)NC(=O)[C@H](CO)NC(=O)[C@@H](NC(=O)[C@](C)(Cc1ccccc1F)NC(=O)[C@@H](NC(=O)CNC(=O)[C@H](CCC(=O)O)NC(=O)C(C)(C)NC(=O)[C@@H](N)Cc1ccc(O)cc1)[C@@H](C)O)[C@@H](C)O)[C@@H](C)CC)[C@@H](C)CC)C(=O)N[C@@H](CCCN)C(=O)NCC(=O)NCC(=O)N1CCC[C@H]1C(=O)N[C@@H](CO)C(=O)N[C@@H](CO)C(=O)NCC(=O)N[C@@H](C)C(=O)N1CCC[C@H]1C(=O)N1CCC[C@H]1C(=O)N1CCC[C@H]1C(=O)N[C@@H](CO)C(N)=O [Example 409] (H-Y[Aib]EGT[αMePhe(2-F)]TSDY[Aib]I[αMeL]LD[Orn]K([AEEA-AEEA-γGlu-Decanoyl(10-(4-HOOC-PhO))])AQ[Aib]K([AEEA-AEEA-γGlu-Decanoyl(10-(4-HOOC-PhO))])FI[dE][αMeY]LI[Orn]GGPSSGAPPPS-NH2; N-terminus assumed),84,0.00928,> 9950,> 9950,97.7,0.188,,,
CC[C@H](C)[C@H](NC(=O)[C@H](CC(C)C)NC(=O)[C@](C)(Cc1ccc(O)cc1)NC(=O)[C@@H](CCC(=O)O)NC(=O)[C@@H](NC(=O)[C@H](Cc1ccccc1)NC(=O)[C@H](CCC(=O)O)NC(=O)C(C)(C)NC(=O)[C@H](CCC(N)=O)NC(=O)[C@H](C)NC(=O)[C@H](CCCCNC(=O)COCCOCCNC(=O)COCCOCCNC(=O)CC[C@H](NC(=O)CCCCCCCCCCCCC(=O)O)C(=O)O)NC(=O)[C@H](CCCN)NC(=O)[C@H](CC(=O)O)NC(=O)[C@H](CC(C)C)NC(=O)[C@](C)(CC(C)C)NC(=O)[C@@H](NC(=O)[C@H](CO)NC(=O)[C@@H](NC(=O)[C@H](CC(=O)O)NC(=O)[C@H](CO)NC(=O)[C@@H](NC(=O)[C@](C)(Cc1ccccc1)NC(=O)[C@@H](NC(=O)CNC(=O)[C@H](CCC(=O)O)NC(=O)C(C)(C)NC(=O)[C@@H](N)Cc1ccc(O)cc1)[C@@H](C)O)[C@@H](C)O)C(C)C)[C@@H](C)CC)[C@@H](C)CC)C(=O)N[C@@H](CCC(=O)O)C(=O)NCC(=O)NCC(=O)N[C@@H](CCCCNC(=O)COCCOCCNC(=O)COCCOCCNC(=O)CC[C@H](NC(=O)CCCCCCCCCCCCC(=O)O)C(=O)O)C(=O)N[C@@H](CO)C(=O)N[C@@H](CO)C(=O)NCC(=O)N[C@@H](C)C(=O)N1CCC[C@H]1C(=O)N1CCC[C@H]1C(=O)N1CCC[C@H]1C(=O)N[C@@H](CO)C(N)=O [Example 179] (H-Y[Aib]EGT[αMeF]TSDVSI[αMeL]LD[Orn]K([AEEA-AEEA-γGlu-C14 diacid])AQ[Aib]EFI[dE][αMeY]LIEGGK([AEEA-AEEA-γGlu-C14 diacid])SSGAPPPS-NH2),,,,,,,91,> 9950,99
